From paper doi:10.1101/2023.10.01.560353v1 (bioRxiv, 2023)
Values after ≈ are worked out from the molar mass of the structure shown. Peptide text beside a SMILES is read from it.

tested on: 11 clinically relevant bacterial pathogens; experiment: MIC over the panel of pathogens; assay type: cell-based; conditions: Table S17; lowest MIC over the strains tested

**Q.** For `CC[C@H](C)[C@H](NC(=O)[C@@H]1CCCN1C(=O)[C@H](CC(N)=O)NC(=O)[C@@H]1CCCN1C(=O)[C@@H]1CCCN1C(=O)[C@H](CCCCN)NC(=O)[C@@H](N)CCCCN)C(=O)N[C@@H](CCCCN)C(=O)N1CCC[C@H]1C(=O)N[C@@H](CCCCN)C(=O)N[C@H](C(=O)N1CCC[C@H]1C(=O)N[C@@H](CC(C)C)C(=O)N[C@@H](CO)C(=O)N[C@@H](C)C(=O)N1CCC[C@H]1C(=O)N[C@@H](CCCNC(=N)N)C(=O)N[C@@H](CCCCN)C(=O)N[C@@H](CO)C(=O)N1CCC[C@H]1C(=O)N[C@@H](CC(N)=O)C(=O)N[C@H](C(=O)N[C@H](C(=O)N[C@@H](CCCCN)C(=O)N[C@@H](Cc1ccc(O)cc1)C(=O)N[C@@H](CCCNC(=N)N)C(=O)N[C@@H](CC(C)C)C(=O)N[C@@H](CCCCN)C(=O)N[C@@H](Cc1ccccc1)C(=O)N[C@@H](CCCNC(=N)N)C(=O)O)C(C)C)[C@@H](C)O)C(C)C` [Mammuthusin-5] (H-KKPPNPIKPKVPLSAPRKSPNTVKYRLKFR-OH), which “MIC (lowest MIC value obtained in the antimicrobial activity assays)” value (shortened to “MIC”) is on record?
**A.** 32000 mM (≈ 112000 mg/mL)

**Q.** Which “MIC” value does the source give for `CC[C@H](C)[C@H](NC(=O)CNC(=O)[C@H](Cc1c[nH]cn1)NC(=O)[C@H](CC(N)=O)NC(=O)[C@H](CCCCN)NC(=O)[C@H](CCC(N)=O)NC(=O)[C@@H](N)CCCNC(=N)N)C(=O)N[C@@H](Cc1c[nH]cn1)C(=O)N[C@@H](Cc1ccccc1)C(=O)N[C@@H](CCCNC(=N)N)C(=O)N[C@H](C(=O)N[C@@H](CC(C)C)C(=O)N[C@@H](C)C(=O)N[C@@H](CCCCN)C(=O)N[C@@H](C)C(=O)N[C@@H](CC(C)C)C(=O)N[C@@H](CCCNC(=N)N)C(=O)O)C(C)C` [Hesperelin-3] (H-RQKNHGIHFRVLAKALR-OH) here?
**A.** 64000 mM (≈ 131000 mg/mL)

**Q.** Which “MIC” value does the source give for `CC[C@H](C)[C@H](NC(=O)[C@H](CCCCN)NC(=O)[C@@H](NC(=O)[C@H](Cc1c[nH]c2ccccc12)NC(=O)[C@@H](N)CCCCN)[C@@H](C)O)C(=O)N[C@@H](Cc1ccc(O)cc1)C(=O)N[C@@H](CC(C)C)C(=O)N1CCC[C@H]1C(=O)N[C@@H](CC(C)C)C(=O)N[C@@H](CC(C)C)C(=O)N[C@@H](CC(C)C)C(=O)N1CCC[C@H]1C(=O)N[C@@H](CC(C)C)C(=O)O` [Bisonin-2] (H-KWTKIYLPLLLPL-OH) here?
**A.** 8000 mM (≈ 12800 mg/mL)

**Q.** How did the “MIC” value turn out when `CC[C@H](C)[C@H](N)C(=O)N[C@@H](Cc1ccccc1)C(=O)N[C@@H](CC(C)C)C(=O)N[C@@H](Cc1c[nH]cn1)C(=O)N[C@@H](CC(C)C)C(=O)N[C@@H](CCCCN)C(=O)N[C@H](C(=O)N[C@@H](CC(C)C)C(=O)N[C@@H](CCCCN)C(=O)N[C@H](C(=O)N[C@H](C(=O)N[C@@H](Cc1c[nH]cn1)C(=O)N[C@@H](CC(C)C)C(=O)N[C@@H](CC(C)C)C(=O)O)[C@@H](C)CC)[C@@H](C)CC)[C@@H](C)O` [Mammuthusin-1] (H-IFLHLKTLKIIHLL-OH) was run?
**A.** 4000 mM (≈ 6810 mg/mL)

**Q.** With `CC[C@H](C)[C@H](NC(=O)[C@H](CCCCN)NC(=O)[C@H](CC(C)C)NC(=O)[C@H](Cc1c[nH]cn1)NC(=O)[C@@H](N)CC(C)C)C(=O)N[C@@H](CC(C)C)C(=O)N[C@@H](CCCCN)C(=O)N[C@H](C(=O)N[C@H](C(=O)N[C@@H](CCCNC(=N)N)C(=O)N[C@@H](CC(C)C)C(=O)N[C@@H](CC(C)C)C(=O)O)[C@@H](C)CC)[C@@H](C)CC` [Elephasin-1] (H-LHLKILKIIRLL-OH) as the compound, how does the “MIC” value read?
**A.** 4000 mM (≈ 5890 mg/mL)

**Q.** How did the “MIC” value turn out when `CC[C@H](C)[C@H](NC(=O)[C@H](Cc1ccccc1)NC(=O)[C@@H](N)CCCCN)C(=O)N[C@@H](CC(C)C)C(=O)N[C@@H](CC(N)=O)C(=O)N[C@@H](Cc1ccccc1)C(=O)N[C@@H](CCCCN)C(=O)N[C@H](C(=O)N1CCC[C@H]1C(=O)N[C@H](C(=O)N[C@@H](CO)C(=O)N[C@@H](Cc1ccccc1)C(=O)N[C@@H](CCCCN)C(=O)O)[C@@H](C)CC)[C@@H](C)CC` [Pinguinusin-1] (H-KFILNFKIPISFK-OH) was run?
**A.** 4000 mM (≈ 6380 mg/mL)

**Q.** For `CC[C@H](C)[C@H](NC(=O)[C@H](CC(C)C)NC(=O)[C@@H](NC(=O)[C@H](CCCCN)NC(=O)[C@H](Cc1c[nH]c2ccccc12)NC(=O)[C@@H](NC(=O)[C@H](CCCCN)NC(=O)[C@H](CC(=O)O)NC(=O)[C@@H](NC(=O)[C@H](CC(C)C)NC(=O)[C@H](Cc1ccccc1)NC(=O)[C@H](C)NC(=O)CNC(=O)[C@@H](NC(=O)[C@@H](N)CCCCN)C(C)C)C(C)C)C(C)C)[C@@H](C)O)C(=O)O` [Anomalopterin-2] (H-KVGAFLVDKVWKTLI-OH), which “MIC” value is on record?
**A.** 32000 mM (≈ 54900 mg/mL)

**Q.** `CC[C@H](C)[C@H](NC(=O)[C@@H](NC(=O)[C@H](CCSC)NC(=O)[C@@H](N)Cc1c[nH]c2ccccc12)[C@@H](C)O)C(=O)N[C@@H](Cc1c[nH]cn1)C(=O)N[C@@H](C)C(=O)N[C@@H](CC(C)C)C(=O)N[C@@H](CCCCN)C(=O)N[C@@H](CC(C)C)C(=O)N[C@@H](CO)C(=O)N[C@@H](CC(C)C)C(=O)N[C@@H](CO)C(=O)N[C@@H](Cc1ccccc1)C(=O)N[C@@H](CCCCN)C(=O)N[C@@H](CC(C)C)C(=O)O` [Mammutin-1] (H-WMTIHALKLSLSFKL-OH) was tested. Which “MIC” value did it give?
**A.** 2000 mM (≈ 3580 mg/mL)

**Q.** Which “MIC” value does the source give for `CC[C@H](C)[C@H](NC(=O)[C@H](Cc1ccc(O)cc1)NC(=O)[C@H](C)NC(=O)[C@@H](N)CCCNC(=N)N)C(=O)N[C@@H](CS)C(=O)N[C@@H](CCCNC(=N)N)C(=O)N[C@@H](CCCCN)C(=O)N[C@@H](CCCCN)C(=O)N[C@@H](Cc1ccccc1)C(=O)N[C@@H](CC(C)C)C(=O)N[C@@H](CO)C(=O)N[C@@H](CC(C)C)C(=O)N[C@@H](CCCNC(=N)N)C(=O)N[C@@H](CCCCN)C(=O)N[C@@H](C)C(=O)N[C@@H](CO)C(=O)N[C@H](C(=O)N[C@@H](CCCCN)C(=O)N[C@@H](CC(C)C)C(=O)N[C@@H](CCC(N)=O)C(=O)N[C@@H](CO)C(=O)N[C@@H](CC(C)C)C(=O)N[C@H](C(=O)N[C@@H](CCCNC(=N)N)C(=O)N[C@@H](CCSC)C(=O)N[C@@H](CCCCN)C(=O)O)C(C)C)[C@@H](C)CC` [Equusin-2] (H-RAYICRKKFLSLRKASIKLQSLVRMK-OH) here?
**A.** 8000 mM (≈ 25100 mg/mL)

**Q.** `CC[C@H](C)[C@H](NC(=O)[C@H](CCCCN)NC(=O)[C@@H](NC(=O)[C@H](Cc1c[nH]c2ccccc12)NC(=O)[C@H](CCCCN)NC(=O)[C@@H](N)CCCCN)[C@@H](C)O)C(=O)N[C@@H](Cc1ccc(O)cc1)C(=O)N[C@@H](CO)C(=O)N1CCC[C@H]1C(=O)N[C@@H](CC(C)C)C(=O)N[C@@H](CO)C(=O)N[C@@H](CC(C)C)C(=O)O` [Smilodin-1] (H-KKWTKIYSPLSL-OH) was tested. Which “MIC” value did it give?
**A.** 64000 mM (≈ 93700 mg/mL)

**Q.** Which “MIC” value does the source give for `CC[C@H](C)[C@H](NC(=O)[C@H](CCCCN)NC(=O)[C@H](CC(N)=O)NC(=O)[C@@H](NC(=O)[C@@H](NC(=O)[C@H](Cc1c[nH]c2ccccc12)NC(=O)[C@H](CC(C)C)NC(=O)[C@H](CCC(N)=O)NC(=O)[C@H](CC(C)C)NC(=O)[C@@H](NC(=O)[C@H](C)NC(=O)[C@H](CC(C)C)NC(=O)[C@@H](N)CCCNC(=N)N)[C@@H](C)O)[C@@H](C)O)[C@@H](C)CC)C(=O)N[C@H](C(=O)N[C@@H](CCCCN)C(=O)N[C@@H](CCC(N)=O)C(=O)N[C@@H](CC(C)C)C(=O)N[C@@H](CCSC)C(=O)N[C@H](C(=O)N1CCC[C@H]1C(=O)N[C@@H](CC(C)C)C(=O)N[C@@H](CC(N)=O)C(=O)N[C@@H](CCCCN)C(=O)N1CCC[C@H]1C(=O)NCC(=O)N[C@@H](Cc1c[nH]cn1)C(=O)N[C@@H](CCCCN)C(=O)O)[C@@H](C)CC)[C@@H](C)O` [Ararin-2] (H-RLATLQLWTINKITKQLMIPLNKPGHK-OH) here?
**A.** 16000 mM (≈ 50500 mg/mL)

**Q.** Which “MIC” value does the source give for `CC[C@H](C)[C@H](NC(=O)[C@H](CC(N)=O)NC(=O)[C@H](CC(C)C)NC(=O)[C@@H](NC(=O)[C@H](Cc1ccccc1)NC(=O)[C@@H]1CCCN1C(=O)[C@@H]1CCCN1C(=O)[C@@H](NC(=O)[C@H](CO)NC(=O)[C@H](CC(C)C)NC(=O)[C@H](CCCCN)NC(=O)[C@H](CCCCN)NC(=O)[C@H](Cc1ccc(O)cc1)NC(=O)[C@@H](NC(=O)[C@@H](N)CCCCN)[C@@H](C)CC)[C@@H](C)O)[C@@H](C)O)C(=O)N[C@@H](CCCNC(=N)N)C(=O)N[C@H](C(=O)N[C@@H](CC(C)C)C(=O)N1CCC[C@H]1C(=O)N[C@@H](CCCCN)C(=O)N[C@H](C(=O)N[C@@H](CCCCN)C(=O)N[C@@H](Cc1ccccc1)C(=O)N1CCC[C@H]1C(=O)N[C@@H](CCCCN)C(=O)O)C(C)C)[C@@H](C)O` [Mylodonin-3] (H-KIYKKLSTPPFTLNIRTLPKVKFPK-OH) here?
**A.** 16000 mM (≈ 47300 mg/mL)

**Q.** `CC[C@H](C)[C@H](NC(=O)[C@H](Cc1ccccc1)NC(=O)[C@H](CC(N)=O)NC(=O)[C@@H](NC(=O)[C@@H](NC(=O)[C@H](Cc1c[nH]cn1)NC(=O)[C@@H](N)CC(C)C)[C@@H](C)O)[C@@H](C)CC)C(=O)N[C@H](C(=O)N[C@@H](CCCCN)C(=O)N[C@@H](CO)C(=O)N[C@@H](CC(C)C)C(=O)N[C@@H](CC(C)C)C(=O)N[C@@H](CC(C)C)C(=O)O)[C@@H](C)CC` [Bisonin-1] (H-LHTINFIIKSLLL-OH) was tested. Which “MIC” value did it give?
**A.** 16000 mM (≈ 24400 mg/mL)

**Q.** For `CC[C@H](C)[C@H](N)C(=O)N[C@H](C(=O)NCC(=O)N[C@@H](CC(N)=O)C(=O)N[C@H](C(=O)N[C@@H](Cc1ccccc1)C(=O)NCC(=O)N[C@@H](Cc1ccccc1)C(=O)N[C@@H](CCCCN)C(=O)N[C@@H](C)C(=O)N[C@@H](CC(C)C)C(=O)N[C@@H](CCCNC(=N)N)C(=O)N[C@@H](C)C(=O)N[C@@H](CC(C)C)C(=O)N[C@@H](CCCNC(=N)N)C(=O)N[C@@H](CC(C)C)C(=O)O)C(C)C)C(C)C` [Hesperelin-4] (H-IVGNVFGFKALRALRL-OH), which “MIC” value is on record?
**A.** 64000 mM (≈ 114000 mg/mL)

**Q.** With `CC[C@H](C)[C@H](NC(=O)[C@H](Cc1ccccc1)NC(=O)[C@@H](N)CC(C)C)C(=O)NCC(=O)N[C@@H](CC(C)C)C(=O)N[C@H](C(=O)N[C@@H](CC(N)=O)C(=O)N[C@@H](CC(C)C)C(=O)N[C@@H](CC(C)C)C(=O)NCC(=O)N[C@@H](CC(C)C)C(=O)N[C@@H](CC(C)C)C(=O)O)[C@@H](C)O` [Mammuthusin-4] (H-LFIGLTNLLGLL-OH) as the compound, how does the “MIC” value read?
**A.** 2000 mM (≈ 2570 mg/mL)
